This passage reports EC50, CC50 and AC50 results from ChEMBL document CHEMBL1201862, “PubChem BioAssay data set” (2004).

The nature of test [1]: Luminescence Cell-Based Dose Response HTS to Identify Activators of Luciferase Translation or Activity in H4 […] Cells. [Related pubchem assays: 1829 (Project Summary), 1814 (Primary HTS)]. Type of test: functional.
The nature of test [2]: Luminescence Cell-Based Dose Confirmation HTS to Identify Activators of 5'UTR Stem-Loop Driven Alpha-Synuclein mRNA Translation in H4 Neuroglioblastoma Cells. [Related pubchem assays: 1829 (Project Summary), 1814 (Primary HTS)]. Type of test: functional.
For test [3], the system named is H4. Nature of the test: Luminescence Cell-Based Dose Response HTS to Identify Activators of 5'UTR Stem-Loop Driven Prion Protein mRNA Translation in H4 Neuroglioblastoma Cells. [Related pubchem assays: 1829 (Project Summary), 1814 (Primary HTS)]. The settings on record: Homo sapiens. Type of test: functional.
A short description of test [4]: viability of uninfected HEp-2 cells – cell-based, HTS, cytotoxicity control for RSV inhibitor project, dose response (AID 2410). It counts as functional. Particulars: human respiratory syncytial virus.
The target in test [5] is T1, Protein RecA (Mycobacterium tuberculosis, UniProt P9WHJ3).
T1 sequence (P9WHJ3 whole entry): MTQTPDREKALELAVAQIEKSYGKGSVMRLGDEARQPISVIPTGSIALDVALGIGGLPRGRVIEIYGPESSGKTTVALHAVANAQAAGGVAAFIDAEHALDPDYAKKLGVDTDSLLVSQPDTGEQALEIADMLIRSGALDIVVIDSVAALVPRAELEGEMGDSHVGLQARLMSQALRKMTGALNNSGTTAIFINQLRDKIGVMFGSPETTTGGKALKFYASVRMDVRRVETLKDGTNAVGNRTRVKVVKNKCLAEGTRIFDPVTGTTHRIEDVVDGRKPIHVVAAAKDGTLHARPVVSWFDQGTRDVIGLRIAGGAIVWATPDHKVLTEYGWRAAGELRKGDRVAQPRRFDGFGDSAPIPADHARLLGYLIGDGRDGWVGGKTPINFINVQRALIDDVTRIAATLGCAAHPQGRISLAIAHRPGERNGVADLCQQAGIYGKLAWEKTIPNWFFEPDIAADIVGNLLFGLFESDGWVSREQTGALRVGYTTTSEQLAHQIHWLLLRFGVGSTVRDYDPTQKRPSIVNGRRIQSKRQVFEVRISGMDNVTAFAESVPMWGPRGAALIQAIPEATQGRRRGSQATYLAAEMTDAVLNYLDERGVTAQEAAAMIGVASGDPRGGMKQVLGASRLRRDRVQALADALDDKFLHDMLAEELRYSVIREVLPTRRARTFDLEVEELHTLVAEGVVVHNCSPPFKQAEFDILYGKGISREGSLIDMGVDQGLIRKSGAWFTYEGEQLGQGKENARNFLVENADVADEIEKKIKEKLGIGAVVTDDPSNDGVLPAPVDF
The test can be described thus: Fluorescence Cell-Free Homogeneous Dose Retest to Identify Inhibitors of RecA-Intein Splicing Activity. [Related pubchem assays (depositor defined):AID2097, AID2223, AID489010, AID492950]. It counts as functional.

Test [6] concerns the target T2, Replicative DNA helicase DnaB (Mycobacterium tuberculosis, UniProt P9WMR3).
T2 sequence (P9WMR3 whole entry): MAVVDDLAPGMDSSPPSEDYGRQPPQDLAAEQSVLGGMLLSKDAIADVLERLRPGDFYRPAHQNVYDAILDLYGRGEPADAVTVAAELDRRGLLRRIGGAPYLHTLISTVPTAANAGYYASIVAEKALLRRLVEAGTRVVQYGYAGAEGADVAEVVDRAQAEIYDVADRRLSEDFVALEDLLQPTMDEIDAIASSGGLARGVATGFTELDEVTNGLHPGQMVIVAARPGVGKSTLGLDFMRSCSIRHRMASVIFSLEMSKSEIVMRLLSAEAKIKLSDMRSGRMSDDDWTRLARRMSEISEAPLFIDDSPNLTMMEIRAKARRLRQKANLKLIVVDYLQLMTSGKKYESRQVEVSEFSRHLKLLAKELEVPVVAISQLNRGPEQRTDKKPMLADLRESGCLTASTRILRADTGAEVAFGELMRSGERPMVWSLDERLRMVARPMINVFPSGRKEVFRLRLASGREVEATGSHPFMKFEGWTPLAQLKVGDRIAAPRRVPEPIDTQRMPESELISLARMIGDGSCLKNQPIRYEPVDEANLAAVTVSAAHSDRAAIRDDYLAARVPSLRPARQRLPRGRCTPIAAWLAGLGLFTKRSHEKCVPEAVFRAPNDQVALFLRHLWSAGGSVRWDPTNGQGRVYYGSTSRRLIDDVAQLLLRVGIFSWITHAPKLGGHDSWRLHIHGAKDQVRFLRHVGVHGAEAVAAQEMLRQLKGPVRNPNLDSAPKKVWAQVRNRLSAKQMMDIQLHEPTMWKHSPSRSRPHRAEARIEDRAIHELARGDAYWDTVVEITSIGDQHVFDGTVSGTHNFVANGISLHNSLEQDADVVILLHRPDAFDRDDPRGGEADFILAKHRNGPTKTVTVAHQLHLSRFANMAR
Nature of the test: DnaB intein splicing inhibitors, dose response, biochemical, cell-free fluorescence (AID 449749). Type of test: functional.

Test [7] can be described thus: Trypanosoma cruzi growth suppression in host cells – NIH3T3 host cells, beta-gal luminescence, confirmation (AID 2044).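 Further: intracellular parasites grown in NIH/3T3 mouse fibroblasts as host cells; luminescent beta-galactosidase reporter signal from transgenic T. cruzi replicating inside host cells; inhibitors lower the luminescence signal.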 It counts as functional, cell-based.
Test [8] in a line: NIH3T3 cell viability loss – ATP luminescence, mouse fibroblasts, counter-screen, dose response (AID 2010).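 Further: cells exposed to compound for about 90 hours before reading.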 It counts as functional, cell-based. In general terms: A counterscreen serves to expose hits that act by an unwanted route or on another target.
In test [9] the target is Cytochrome P450 3A4 (Homo sapiens, UniProt P08684).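 Further: CYP3A4 tested as one member of a cytochrome P450 panel screen.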
Test [10] deals with Cytochrome P450 2C19 (Homo sapiens, UniProt P33261). The test can be described thus: Cytochrome panel assay with activity outcomes. Panel member name: p450-cyp2c19 Compounds with AC50 equal or less than 10 uM are considered active. The settings on record: read-out: AC50. It counts as functional.
The target in test [11] is T3, Cytochrome P450 1A2 (Homo sapiens, UniProt P05177).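 Further: PubChem cytochrome P450 panel assay, CYP1A2 panel member.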
T3 sequence (P05177 whole entry): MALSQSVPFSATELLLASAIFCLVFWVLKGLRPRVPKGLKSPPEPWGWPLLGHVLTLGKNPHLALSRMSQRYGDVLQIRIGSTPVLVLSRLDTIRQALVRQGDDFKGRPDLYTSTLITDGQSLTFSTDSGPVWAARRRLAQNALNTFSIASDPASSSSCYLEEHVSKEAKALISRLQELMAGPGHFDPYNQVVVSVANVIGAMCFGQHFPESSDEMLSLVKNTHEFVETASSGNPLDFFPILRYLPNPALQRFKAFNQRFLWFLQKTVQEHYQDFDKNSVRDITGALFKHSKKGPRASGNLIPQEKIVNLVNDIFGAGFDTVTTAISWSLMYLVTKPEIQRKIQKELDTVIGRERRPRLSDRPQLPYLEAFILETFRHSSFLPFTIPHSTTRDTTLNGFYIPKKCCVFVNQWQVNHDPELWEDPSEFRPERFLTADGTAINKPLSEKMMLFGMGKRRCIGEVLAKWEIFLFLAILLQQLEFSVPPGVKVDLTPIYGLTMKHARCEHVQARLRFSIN

The test system of test [12] is INS1. The test can be described thus: INS-1E survival protection against cytokine death – cell-based, luminescence, retest, dose response (AID 449756).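 Further: cell death triggered by IL-1 beta plus TNF-alpha plus IFN-gamma mixture; protective hits raise ATP signal compared with cytokine alone wells.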 Type of test: functional. Particulars: Rattus norvegicus.

Usually EC50 stands for the midpoint of the concentration-response curve. What is called CC50 is the concentration at which the toxic effect on the cells reaches its halfway point. As a reminder, the AC50 is the concentration giving half of the maximal activity seen.

The source made the active and inactive calls.

Cytochrome P450 2C19, sequence (P33261 whole entry): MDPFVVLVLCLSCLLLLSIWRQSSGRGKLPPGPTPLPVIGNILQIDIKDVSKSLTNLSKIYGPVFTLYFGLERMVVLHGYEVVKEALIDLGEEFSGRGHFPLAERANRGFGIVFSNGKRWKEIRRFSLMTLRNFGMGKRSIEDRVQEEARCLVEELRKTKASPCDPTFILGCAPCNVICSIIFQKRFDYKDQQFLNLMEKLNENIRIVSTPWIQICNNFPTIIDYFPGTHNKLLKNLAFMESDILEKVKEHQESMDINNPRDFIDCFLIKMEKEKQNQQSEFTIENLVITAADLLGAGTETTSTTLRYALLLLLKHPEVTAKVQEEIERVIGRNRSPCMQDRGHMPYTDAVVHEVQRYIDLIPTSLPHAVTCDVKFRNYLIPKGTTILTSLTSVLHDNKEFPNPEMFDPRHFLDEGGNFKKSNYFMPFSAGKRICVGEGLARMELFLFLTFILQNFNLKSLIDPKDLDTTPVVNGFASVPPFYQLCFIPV
Cytochrome P450 3A4, sequence (P08684 whole entry): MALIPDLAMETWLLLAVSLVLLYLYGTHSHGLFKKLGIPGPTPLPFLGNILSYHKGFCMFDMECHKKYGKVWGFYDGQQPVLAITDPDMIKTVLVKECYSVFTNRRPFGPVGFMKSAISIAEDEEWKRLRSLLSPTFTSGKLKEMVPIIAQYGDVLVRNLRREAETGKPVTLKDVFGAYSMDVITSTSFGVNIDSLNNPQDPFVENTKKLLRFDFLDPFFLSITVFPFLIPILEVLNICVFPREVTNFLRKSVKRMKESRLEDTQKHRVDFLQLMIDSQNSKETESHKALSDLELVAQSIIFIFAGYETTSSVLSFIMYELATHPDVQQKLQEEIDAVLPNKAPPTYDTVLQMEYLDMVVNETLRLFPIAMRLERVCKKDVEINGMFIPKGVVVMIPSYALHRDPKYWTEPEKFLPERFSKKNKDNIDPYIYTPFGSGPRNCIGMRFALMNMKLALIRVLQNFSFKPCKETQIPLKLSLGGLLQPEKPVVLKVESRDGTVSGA

`c1ccc2c(-c3nc(-c4ccncc4)no3)cccc2c1`: the figures for the EC50 in [1], in test [2] and in [3] were > 120 µM (not active), 0.841 µM (active) and 51.4 µM (active), respectively.
As for `COc1ccc(CN(C(=O)CSc2nnc(-c3ccccc3C)o2)c2ccc(F)cc2)cc1`, the CC50 in test [4] is 29.4 µM (active). Besides, the EC50 in test [5] is 8.86 µM (active). In addition, in test [6], the AC50 is 1.42 µM (active).
Regarding `Nc1nn(-c2ccccc2)nc1C(=O)OCc1ccccc1`, the EC50 in [1] was 13.7 µM (active); in test [2], > 120 µM (not active); in test [3], 25.2 µM (active).
Take `Oc1nc(CCl)nc2cc(-c3ccc(Cl)cc3)sc12`: the CC50 in test [4] is 14.5 µM (active). The EC50 was 1.14 µM (active) in test [7] and 6.96 µM (active) in [8].
Turning to `Cc1cccc(OCC2=NS(=O)(=O)c3ccccc3N2)c1`, the values for the EC50 in test [1], in test [2] and in [3] were 9.74 µM (active), > 120 µM (not active) and > 120 µM (not active), respectively.
Turning to `CC(C)(C)c1ccc(OCc2ccc(C(=O)N/N=C/c3ccc([N+](=O)[O-])cc3)o2)cc1`, the CC50 in test [4] was 23.3 µM (active).
Consider `Cc1c(OCC(=O)NCc2cccnc2)ccc2c3c(c(=O)oc12)CCC3`, for which the EC50 is > 120 µM (not active) in test [1], > 120 µM (not active) in test [2] and 15.4 µM (active) in test [3].
For `CC(C)(C)c1ccc(OCc2ccc(C(=O)NCc3cccnc3)o2)cc1`, the EC50 in test [1] was 5.94 µM (active); in [2], 6.24 µM (active); in test [3] it was > 120 µM (not active).
Turning to `C/C(=N\n1nnnc1Nc1ccccc1)c1ccc(N)cc1`, the AC50 in test [9] was 22.4 µM (inconclusive); in test [10], 3.55 µM (inconclusive); in test [11], 12.6 µM (inconclusive). Besides, the EC50 in test [1], in [2] and in test [3] was > 120 µM (not active) each time.
Regarding `N#Cc1ccc(-c2ccc(Cl)cc2)nc1SCC(=O)c1cccc(Cl)c1`, the AC50 in test [12] is 3.9 µM (active). Moreover, the EC50 in [1], in test [2] and in test [3] was > 120 µM (not active) in each case.
In the case of `Cc1ccc(Nc2nc(N)c([N+](=O)[O-])c(NCc3ccco3)n2)cc1`, the half-maximal cytotoxic concentration (CC50) in test [4] is > 50 µM (active).
Still for that read-out and setting: to `CCn1cnc2cc(NCc3ccccc3Cl)ccc21` belongs 25 µM (active).
Consider `Cn1cc(/C=C(\NC(=O)c2ccccc2Cl)C(=O)NCCN2CCOCC2)c2ccccc21`, for which the EC50 in test [1], in test [2] and in test [3] was > 120 µM (not active) throughout.
Consider `O=C(COC(=O)c1ccccc1C(=O)c1ccccc1)Nc1ccc(SC(F)F)cc1`, for which the CC50 in test [4] is 16.4 µM (active).
With `Cc1cc(CNC(=O)c2ccc3nc(Cc4ccccc4F)oc3c2)nn1C`, the EC50 in test [1] was 58.7 µM (active); in [2] it was 0.3 µM (active); in [3], 7.51 µM (active).
Taken in the same sequence, the figures for `CCOC(=O)c1c(C)[nH]c(/C=N/c2ccc(OC)cc2)c1O` were 46.9 µM (active), 16.5 µM (active) and 4.53 µM (active).
Take `COn1c2c(c3c4no[n+]([O-])c4ccc31)CCCC2`: in [4], the CC50 was 16.5 µM (active).
Consider `Cc1cc(-n2c(C)cc(C(=O)COC(=O)CNC3=NS(=O)(=O)c4ccccc43)c2C)no1`, for which the CC50 in [4] was 25.8 µM (active).
In the case of `COc1ccc(S(=O)(=O)n2ccc(-c3ccc4c(c3)CCC(C)(C)O4)n2)cc1`, the EC50 was 17.2 µM (active) in test [1], > 120 µM (not active) in test [2] and 43.4 µM (active) in test [3].
`CC(C)c1ccc(NC(S)=NN2CCOCC2)cc1`: the values for the EC50 in test [1], in test [2] and in test [3] were 17.4 µM (active), 18.4 µM (active) and 22.2 µM (active), respectively.
For `Cc1ccc2c(c1)c1c3n2CCN(C(=O)Cn2c(-c4ccccc4)noc2=O)C3CCC1` (stereo not given), the CC50 in test [4] was 38.8 µM (active).
With `C=CCn1cccc(C(=O)Nc2ccc(SC)cc2)c1=O`, the EC50 in test [1] was 0.188 µM (active); in test [2], 0.229 µM (active); in test [3], 9.44 µM (active).
For the molecule `Cc1ccccc1OCc1nc(-c2ccc(NC(=O)c3cccs3)cc2)no1`, the EC50 in test [1] was 28.5 µM (active); in test [2], 23.8 µM (active); in test [3], 1.46 µM (active).
For `CCC1(c2ccccc2)NC(=O)N(CC(=O)Nc2cc(S(=O)(=O)N3CCCCCC3)ccc2OC)C1=O` (stereo not given), the CC50 in test [4] is 29.9 µM (active).
As for `COc1ccccc1N=C(S)NNC(=O)c1ccc(Cl)cc1Cl`, the EC50 in test [1] is 31.8 µM (active); in test [2], 10.9 µM (active); in test [3] it was 61.7 µM (active).
Regarding `Cn1cc(/C=C2\SC(=O)N(c3ccc(O)cc3)C2=O)c2ccccc21`, in test [4], the CC50 is 16 µM (active).
`C(=N\C(/N=C/c1ccco1)c1ccco1)/c1ccco1`: the EC50 in [1] is > 120 µM (not active); in test [2], 28.9 µM (active); in test [3], > 120 µM (not active).
On to `Cc1nc(C(=O)Nc2ccccc2)sc1C1(C)CC(c2cccnc2)=NO1` (stereo not given), for which the EC50 in [1] was 30.4 µM (active); in [2], 10.1 µM (active); in [3], 11.9 µM (active).
